Results: patent publication US12435044B2, “Pyridazinone herbicides and pyridazinone intermediates used to prepare a herbicide” (FMC Corporation, priority 2018, dated 2025)

Legend:
Assay in all cases: Test C pre-/postemergence greenhouse test
Format in all cases: in vivo
Conditions in all cases: scale 0 to 100
[1] = tested on: windgrass (Apera spica-venti)
Source text: (§1) Seeds of plant species selected from blackgrass (Alopecurus myosuroides), ryegrass, Italian (Lolium multiflorum), wheat, winter (winter wheat, Triticum aestivum), galium (catchweed bedstraw, Galium aparine), corn (Zea mays), crabgrass, large (Digitaria sanguinalis), foxtail, giant (Setaria faberii), johnsongrass (Sorghum halepense), lambsquarters (Chenopodium album), morningglory (Ipomoea coccinea), nutsedge, yellow (Cyperus esculentus), pigweed (Amaranthus retroflexus), ragweed (common ragweed, Ambrosia elatior), soybean (Glycine max), barnyardgrass (Echinochloa crus-galli), oilseed rape (Brassica napus), waterhemp (common waterhemp, Amaranthus rudis), pigweed, palmer (Amaranthus palmeri), kochia (Kochia scoparia), oat, wild (Avena fatua), surinam grass (Brachiaria decumbens), windgrass (Apera spica-venti), poinsettia, wild (Euphorbia heterophylla) and velvetleaf (Abutilon theophrasti) were planted into a silt loam soil and treated preemergence with test chemicals formulated in a non-phytotoxic solvent mixture which included a surfactant.
(§2) At the same time, plants selected from these crop and weed species and also chickweed (common chickweed, Stellaria media), buckwheat, wild (Polygonum convolvulus), mustard, wild (Sinapis arvensis), field poppy (Papaver rhoeas), field violet (Viola arvensis), nightshade (eastern black nightshade, Solanum ptycanthum), speedwell (bird's-eye speedwell, Veronica persica), horseweed (Conyza canadensis), cutleaf geranium (Geranium dissectum), and Canada thistle (Cirsium arvense) were planted in pots containing Redi-Earth® planting medium (Scotts Company, 14111 Scottslawn Road, Marysville, Ohio 43041) comprising spaghnum peat moss, vermiculite, wetting agent and starter nutrients and treated with postemergence applications of test chemicals formulated in the same manner. Plants ranged in height from 2 to 18 cm (1- to 4-leaf stage) for postemergence treatments. Treated plants and controls were maintained in a greenhouse for 13 to 21 d, after which time all species were compared to controls and visually evaluated. Plant response ratings, summarized in Table C-1 (postemergence) and C-2 (preemergence), are based on a scale of 0 to 100 where 0 is no effect and 100 is complete control. A dash (-) response means no test result.

[2] = tested on: pigweed, palmer (Amaranthus palmeri)
Source text: as §1, §2

oat, wild (Avena fatua) = tested on: oat, wild (Avena fatua)
Source text: as §1, §2

[3] = tested on: waterhemp (common waterhemp, Amaranthus rudis)
Source text: as §1, §2

corn (Zea mays) = tested on: corn (Zea mays)
Source text: as §1, §2

[4] = tested on: nutsedge, yellow (Cyperus esculentus)
Source text: as §1, §2

[5] = tested on: lambsquarters (Chenopodium album)
Source text: as §1, §2

[6] = tested on: morningglory (Ipomoea coccinea)
Source text: as §1, §2

[7] = tested on: ragweed (common ragweed, Ambrosia elatior)
Source text: as §1, §2

[8] = tested on: velvetleaf (Abutilon theophrasti)
Source text: as §1, §2

soybean (Glycine max) = tested on: soybean (Glycine max)
Source text: as §1, §2

kochia (Kochia scoparia) = tested on: kochia (Kochia scoparia)
Source text: as §1, §2

[9] = tested on: oilseed rape (Brassica napus)
Source text: as §1, §2

[10] = tested on: galium (catchweed bedstraw, Galium aparine)
Source text: as §1, §2

With Cc1cc(Cl)c2ccccc2c1-c1c(O)c(Cl)nn(C)c1=O [Cpd. No. 65] the “Plant response rating, Windgrass” value ([1]; Postemergence, 16 g ai/ha) was 90, the “Plant response rating, Windgrass” value ([1]; Postemergence, 31 g ai/ha) was 90 and the “Plant response rating, Windgrass” value ([1]; Postemergence, 62 g ai/ha) was 95. The “Plant response rating, Windgrass” value ([1]; Postemergence, 125 g ai/ha) was 95, the “Plant response rating, Windgrass” value ([1]; Preemergence, 31 g ai/ha) was 80 and the “Plant response rating, Windgrass” value ([1]; Preemergence, 61 g ai/ha) was 50. The “Plant response rating, Windgrass” value ([1]; Preemergence, 62 g ai/ha) was 95, the “Plant response rating, Windgrass” value ([1]; Preemergence, 125 g ai/ha) was 100 and the “Plant response rating, Pigweed, Palmer” value ([2]; Postemergence, 16 g ai/ha) was 35. The “Plant response rating, Pigweed, Palmer” value ([2]; Postemergence, 31 g ai/ha) was 55, the “Plant response rating, Pigweed, Palmer” value ([2]; Postemergence, 62 g ai/ha) was 60 and the “Plant response rating, Pigweed, Palmer” value ([2]; Postemergence, 125 g ai/ha) was 95. For the same compound, the “Plant response rating, Pigweed, Palmer” value ([2]; Preemergence, 31 g ai/ha) was 70, the “Plant response rating, Pigweed, Palmer” value ([2]; Preemergence, 61 g ai/ha) was 50 and the “Plant response rating, Pigweed, Palmer” value ([2]; Preemergence, 62 g ai/ha) was 100. The “Plant response rating, Pigweed, Palmer” value ([2]; Preemergence, 125 g ai/ha) was 100, the “Plant response rating, Oat, Wild” value (oat, wild (Avena fatua); Postemergence, 16 g ai/ha) was 98 and the “Plant response rating, Oat, Wild” value (oat, wild (Avena fatua); Postemergence, 31 g ai/ha) was 100. The “Plant response rating, Oat, Wild” value (oat, wild (Avena fatua); Postemergence, 62 g ai/ha) was 100, the “Plant response rating, Oat, Wild” value (oat, wild (Avena fatua); Postemergence, 125 g ai/ha) was 100 and the “Plant response rating, Oat, Wild” value (oat, wild (Avena fatua); Preemergence, 31 g ai/ha) was 35. For the same compound, the “Plant response rating, Oat, Wild” value (oat, wild (Avena fatua); Preemergence, 61 g ai/ha) was 30, the “Plant response rating, Oat, Wild” value (oat, wild (Avena fatua); Preemergence, 62 g ai/ha) was 40 and the “Plant response rating, Oat, Wild” value (oat, wild (Avena fatua); Preemergence, 125 g ai/ha) was 60. The “Plant response rating, Waterhemp” value ([3]; Postemergence, 16 g ai/ha) was 80, the “Plant response rating, Waterhemp” value ([3]; Postemergence, 31 g ai/ha) was 90 and the “Plant response rating, Waterhemp” value ([3]; Postemergence, 62 g ai/ha) was 95. The “Plant response rating, Waterhemp” value ([3]; Postemergence, 125 g ai/ha) was 95, the “Plant response rating, Waterhemp” value ([3]; Preemergence, 31 g ai/ha) was 75 and the “Plant response rating, Waterhemp” value ([3]; Preemergence, 61 g ai/ha) was 80. For the same compound, the “Plant response rating, Waterhemp” value ([3]; Preemergence, 62 g ai/ha) was 85, the “Plant response rating, Waterhemp” value ([3]; Preemergence, 125 g ai/ha) was 95 and the “Plant response rating, Corn” value (corn (Zea mays); Postemergence, 16 g ai/ha) was 30. For the same compound, the “Plant response rating, Corn” value (corn (Zea mays); Postemergence, 31 g ai/ha) was 40, the “Plant response rating, Corn” value (corn (Zea mays); Postemergence, 62 g ai/ha) was 65 and the “Plant response rating, Corn” value (corn (Zea mays); Postemergence, 125 g ai/ha) was 75. For the same compound, the “Plant response rating, Corn” value (corn (Zea mays); Preemergence, 31 g ai/ha) was 0, the “Plant response rating, Corn” value (corn (Zea mays); Preemergence, 61 g ai/ha) was 0 and the “Plant response rating, Corn” value (corn (Zea mays); Preemergence, 62 g ai/ha) was 5. The “Plant response rating, Corn” value (corn (Zea mays); Preemergence, 125 g ai/ha) was 15, the “Plant response rating, Nutsedge, Yellow” value ([4]; Postemergence, 16 g ai/ha) was 50 and the “Plant response rating, Nutsedge, Yellow” value ([4]; Postemergence, 31 g ai/ha) was 75. For the same compound, the “Plant response rating, Nutsedge, Yellow” value ([4]; Postemergence, 62 g ai/ha) was 65, the “Plant response rating, Nutsedge, Yellow” value ([4]; Postemergence, 125 g ai/ha) was 95 and the “Plant response rating, Nutsedge, Yellow” value ([4]; Preemergence, 31 g ai/ha) was 75. The “Plant response rating, Nutsedge, Yellow” value ([4]; Preemergence, 61 g ai/ha) was 10, the “Plant response rating, Nutsedge, Yellow” value ([4]; Preemergence, 62 g ai/ha) was 75 and the “Plant response rating, Nutsedge, Yellow” value ([4]; Preemergence, 125 g ai/ha) was 95. The “Plant response rating, Lambsquarters” value ([5]; Postemergence, 16 g ai/ha) was 90, the “Plant response rating, Lambsquarters” value ([5]; Postemergence, 31 g ai/ha) was 98 and the “Plant response rating, Lambsquarters” value ([5]; Postemergence, 62 g ai/ha) was 100. For the same compound, the “Plant response rating, Lambsquarters” value ([5]; Postemergence, 125 g ai/ha) was 100, the “Plant response rating, Lambsquarters” value ([5]; Preemergence, 31 g ai/ha) was 80 and the “Plant response rating, Lambsquarters” value ([5]; Preemergence, 61 g ai/ha) was 20. For the same compound, the “Plant response rating, Lambsquarters” value ([5]; Preemergence, 62 g ai/ha) was 90, the “Plant response rating, Lambsquarters” value ([5]; Preemergence, 125 g ai/ha) was 100 and the “Plant response rating, Morningglory” value ([6]; Postemergence, 16 g ai/ha) was 98. For the same compound, the “Plant response rating, Morningglory” value ([6]; Postemergence, 31 g ai/ha) was 100, the “Plant response rating, Morningglory” value ([6]; Postemergence, 62 g ai/ha) was 100 and the “Plant response rating, Morningglory” value ([6]; Postemergence, 125 g ai/ha) was 100. For the same compound, the “Plant response rating, Morningglory” value ([6]; Preemergence, 31 g ai/ha) was 90, the “Plant response rating, Morningglory” value ([6]; Preemergence, 61 g ai/ha) was 55 and the “Plant response rating, Morningglory” value ([6]; Preemergence, 62 g ai/ha) was 98. For the same compound, the “Plant response rating, Morningglory” value ([6]; Preemergence, 125 g ai/ha) was 95, the “Plant response rating, Ragweed” value ([7]; Postemergence, 16 g ai/ha) was 98 and the “Plant response rating, Ragweed” value ([7]; Postemergence, 31 g ai/ha) was 100. The “Plant response rating, Ragweed” value ([7]; Postemergence, 62 g ai/ha) was 98, the “Plant response rating, Ragweed” value ([7]; Postemergence, 125 g ai/ha) was 98 and the “Plant response rating, Ragweed” value ([7]; Preemergence, 31 g ai/ha) was 95. The “Plant response rating, Ragweed” value ([7]; Preemergence, 61 g ai/ha) was 65, the “Plant response rating, Ragweed” value ([7]; Preemergence, 62 g ai/ha) was 98 and the “Plant response rating, Ragweed” value ([7]; Preemergence, 125 g ai/ha) was 100. The “Plant response rating, Velvetleaf” value ([8]; Postemergence, 16 g ai/ha) was 40, the “Plant response rating, Velvetleaf” value ([8]; Postemergence, 31 g ai/ha) was 85 and the “Plant response rating, Velvetleaf” value ([8]; Postemergence, 62 g ai/ha) was 100. The “Plant response rating, Velvetleaf” value ([8]; Postemergence, 125 g ai/ha) was 100, the “Plant response rating, Velvetleaf” value ([8]; Preemergence, 31 g ai/ha) was 60 and the “Plant response rating, Velvetleaf” value ([8]; Preemergence, 61 g ai/ha) was 40. For the same compound, the “Plant response rating, Velvetleaf” value ([8]; Preemergence, 62 g ai/ha) was 75, the “Plant response rating, Velvetleaf” value ([8]; Preemergence, 125 g ai/ha) was 100 and the “Plant response rating, Soybean” value (soybean (Glycine max); Postemergence, 16 g ai/ha) was 65. The “Plant response rating, Soybean” value (soybean (Glycine max); Postemergence, 31 g ai/ha) was 75, the “Plant response rating, Soybean” value (soybean (Glycine max); Postemergence, 62 g ai/ha) was 80 and the “Plant response rating, Soybean” value (soybean (Glycine max); Postemergence, 125 g ai/ha) was 85. For the same compound, the “Plant response rating, Soybean” value (soybean (Glycine max); Preemergence, 31 g ai/ha) was 0, the “Plant response rating, Soybean” value (soybean (Glycine max); Preemergence, 61 g ai/ha) was 0 and the “Plant response rating, Soybean” value (soybean (Glycine max); Preemergence, 62 g ai/ha) was 5. The “Plant response rating, Soybean” value (soybean (Glycine max); Preemergence, 125 g ai/ha) was 30, the “Plant response rating, Kochia” value (kochia (Kochia scoparia); Postemergence, 16 g ai/ha) was 40 and the “Plant response rating, Kochia” value (kochia (Kochia scoparia); Postemergence, 31 g ai/ha) was 55. The “Plant response rating, Kochia” value (kochia (Kochia scoparia); Postemergence, 62 g ai/ha) was 65, the “Plant response rating, Kochia” value (kochia (Kochia scoparia); Postemergence, 125 g ai/ha) was 75 and the “Plant response rating, Kochia” value (kochia (Kochia scoparia); Preemergence, 31 g ai/ha) was 70. The “Plant response rating, Kochia” value (kochia (Kochia scoparia); Preemergence, 61 g ai/ha) was 20, the “Plant response rating, Kochia” value (kochia (Kochia scoparia); Preemergence, 62 g ai/ha) was 85 and the “Plant response rating, Kochia” value (kochia (Kochia scoparia); Preemergence, 125 g ai/ha) was 90. For the same compound, the “Plant response rating, Oilseed Rape” value ([9]; Postemergence, 16 g ai/ha) was 95, the “Plant response rating, Oilseed Rape” value ([9]; Postemergence, 31 g ai/ha) was 100 and the “Plant response rating, Oilseed Rape” value ([9]; Postemergence, 62 g ai/ha) was 100. The “Plant response rating, Oilseed Rape” value ([9]; Postemergence, 125 g ai/ha) was 100, the “Plant response rating, Oilseed Rape” value ([9]; Preemergence, 31 g ai/ha) was 5 and the “Plant response rating, Oilseed Rape” value ([9]; Preemergence, 61 g ai/ha) was 5. For the same compound, the “Plant response rating, Oilseed Rape” value ([9]; Preemergence, 62 g ai/ha) was 98, the “Plant response rating, Oilseed Rape” value ([9]; Preemergence, 125 g ai/ha) was 100 and the “Plant response rating, Galium” value ([10]; Postemergence, 16 g ai/ha) was 90. For the same compound, the “Plant response rating, Galium” value ([10]; Postemergence, 31 g ai/ha) was 90, the “Plant response rating, Galium” value ([10]; Postemergence, 62 g ai/ha) was 95 and the “Plant response rating, Galium” value ([10]; Postemergence, 125 g ai/ha) was 98. The “Plant response rating, Galium” value ([10]; Preemergence, 31 g ai/ha) was 85, the “Plant response rating, Galium” value ([10]; Preemergence, 61 g ai/ha) was 0 and the “Plant response rating, Galium” value ([10]; Preemergence, 62 g ai/ha) was 98. For the same compound, the “Plant response rating, Galium” value ([10]; Preemergence, 125 g ai/ha) was 100.
